From patent US8802700B2 (Vertex Pharmaceuticals Incorporated, priority 2010, dated 2014) come the findings set out here.

T1 sequence (P13569 with tags, fused parts or gaps DEL508-508): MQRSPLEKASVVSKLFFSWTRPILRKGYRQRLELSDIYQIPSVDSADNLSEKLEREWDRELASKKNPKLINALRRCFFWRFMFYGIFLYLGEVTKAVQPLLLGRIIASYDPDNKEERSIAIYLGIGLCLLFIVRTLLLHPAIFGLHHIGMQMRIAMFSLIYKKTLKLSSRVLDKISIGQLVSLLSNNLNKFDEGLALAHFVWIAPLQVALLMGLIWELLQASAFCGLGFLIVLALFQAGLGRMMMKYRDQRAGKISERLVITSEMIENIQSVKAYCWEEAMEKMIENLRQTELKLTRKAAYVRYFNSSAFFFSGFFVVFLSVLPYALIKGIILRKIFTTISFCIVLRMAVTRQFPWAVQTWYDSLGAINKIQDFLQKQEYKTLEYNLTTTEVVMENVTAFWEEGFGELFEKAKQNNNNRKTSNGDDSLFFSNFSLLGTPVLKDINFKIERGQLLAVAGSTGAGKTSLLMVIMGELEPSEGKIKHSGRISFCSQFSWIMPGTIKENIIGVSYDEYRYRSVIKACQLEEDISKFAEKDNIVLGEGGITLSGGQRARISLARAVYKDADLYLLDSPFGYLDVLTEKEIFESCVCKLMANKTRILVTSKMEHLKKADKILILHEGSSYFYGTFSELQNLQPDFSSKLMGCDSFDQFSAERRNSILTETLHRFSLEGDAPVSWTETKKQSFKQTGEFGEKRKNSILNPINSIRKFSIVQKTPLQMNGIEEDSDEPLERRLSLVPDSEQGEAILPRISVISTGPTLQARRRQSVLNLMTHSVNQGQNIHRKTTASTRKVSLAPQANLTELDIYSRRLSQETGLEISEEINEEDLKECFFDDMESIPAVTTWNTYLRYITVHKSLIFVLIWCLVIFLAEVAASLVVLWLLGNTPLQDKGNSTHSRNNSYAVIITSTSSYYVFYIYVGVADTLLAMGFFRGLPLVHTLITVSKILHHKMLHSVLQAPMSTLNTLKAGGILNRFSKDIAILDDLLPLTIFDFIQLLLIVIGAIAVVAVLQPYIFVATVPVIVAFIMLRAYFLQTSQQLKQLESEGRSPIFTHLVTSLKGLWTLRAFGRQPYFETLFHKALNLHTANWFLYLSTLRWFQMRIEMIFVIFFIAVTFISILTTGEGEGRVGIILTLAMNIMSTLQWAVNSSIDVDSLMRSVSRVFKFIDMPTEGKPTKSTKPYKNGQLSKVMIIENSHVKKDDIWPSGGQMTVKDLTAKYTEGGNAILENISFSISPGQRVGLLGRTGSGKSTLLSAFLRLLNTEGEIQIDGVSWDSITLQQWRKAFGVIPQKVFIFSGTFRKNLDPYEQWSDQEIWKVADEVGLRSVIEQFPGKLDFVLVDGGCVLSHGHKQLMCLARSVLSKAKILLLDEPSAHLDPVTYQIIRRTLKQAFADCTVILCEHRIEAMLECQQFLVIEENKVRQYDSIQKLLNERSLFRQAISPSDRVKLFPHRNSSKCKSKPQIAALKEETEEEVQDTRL

The experiment concerns the target T1, ΔF508-CFTR (Homo sapiens, UniProt P13569, DEL508-508).
T1 construct: expressed in transfected cells
Nature of the experiment: Membrane potential optical assay (FRET voltage-sensor dyes, VIPR), identification of potentiator compounds. Type of experiment: cell-based. The note with it: Table 3; assay not given; read-out: % Activity (% Efficacy, relative efficacy). The text has this:
The optical membrane potential assay utilized voltage-sensitive FRET sensors described by Gonzalez and Tsien (See Gonzalez, J. E. and R. Y. Tsien (1995) “Voltage sensing by fluorescence resonance energy transfer in single cells” Biophys J 69(4): 1272-80, and Gonzalez, J. E. and R. Y. Tsien (1997) “Improved indicators of cell membrane potential that use fluorescence resonance energy transfer” Chem Biol 4(4): 269-77) in combination with instrumentation for measuring fluorescence changes such as the Voltage/Ion Probe Reader (VIPR) (See […]. Oades, et al. (1999) “Cell-based assays and instrumentation for screening ion-channel targets” Drug Discov Today 4(9): 431-439). These voltage sensitive assays are based on the change in fluorescence resonant energy transfer (FRET) between the membrane-soluble, voltage-sensitive dye, DiSBAC2(3), and a fluorescent phospholipid, CC2-DMPE, which is attached to the outer leaflet of the plasma membrane and acts as a FRET donor. Changes in membrane potential (Vm) cause the negatively charged DiSBAC2(3) to redistribute across the plasma membrane and the amount of energy transfer from CC2-DMPE changes accordingly. The changes in fluorescence emission were monitored using VIPRTM II, which is an integrated liquid handler and fluorescent detector designed to conduct cell-based screens in 96- or 384-well microtiter plates. To identify potentiators of ΔF508-CFTR, a double-addition HTS assay format was developed. During the first addition, a Cl^--free medium with or without test compound was added to each well. […] (in mM) NaCl 160, KCl 4.5, CaCl2 2, MgCl2 1, HEPES 10, pH 7.4 with NaOH. • Chloride-free bath solution: Chloride salts in Bath Solution #1 are substituted with gluconate salts. • CC2-DMPE: Prepared as a 10 mM stock solution in DMSO and stored at -20° C. • DiSBAC2(3): Prepared as a 10 mM stock in DMSO and stored at -20° C. NIH3T3 mouse fibroblasts stably expressing ΔF508-CFTR are used for optical measurements of membrane potential. […] For all optical assays, the cells were seeded at 30,000/well in 384-well matrigel-coated plates and cultured for 2 hrs at 37° C. before culturing at 27° C. for 24 hrs. for the potentiator assay.
Regarding `O=C(Nc1cccnc1Oc1ccccc1F)c1c[nH]c2ccccc2c1=O` [Compound 435, N-[2-(2-fluorophenoxy)-3-pyridyl]-4-oxo-1H-quinoline-3-carboxamide], the Emax was in the range of 25 to 100%. For `Nc1cc(NC(=O)c2c[nH]c3ccccc3c2=O)c(Cl)cc1Cl` [Compound 242, N-(5-amino-2,4-dichloro-phenyl)-4-oxo-1H-quinoline-3-carboxamide], the Emax lay within 25 to 100%. For the molecule `CC(C)(C)c1cc(F)c(NC(=O)c2c[nH]c3cc(F)c(F)cc3c2=O)cc1O` [Compound 486, 6,7-difluoro-N-(2-fluoro-5-hydroxy-4-tert-butyl-phenyl)-4-oxo-1H-quinoline-3-carboxamide], the Emax is 25 to 100%.

With `O=C(Nc1ccccc1-c1cc2ccccc2[nH]1)c1c[nH]c2ccccc2c1=O` [Compound 38, N-[2-(1H-indol-2-yl)phenyl]-4-oxo-1H-quinoline-3-carboxamide], the Emax was 25 to 100%.

In the case of `CC(C)c1ccccc1NC(=O)c1c[nH]c2ccccc2c1=O` [Compound 36, N-(2-isopropylphenyl)-4-oxo-1H-quinoline-3-carboxamide], the Emax fell in the range of 25 to 100%. As for `CN(C)CCS(=O)(=O)Nc1cc(NC(=O)c2c[nH]c3ccccc3c2=O)cc(C(F)(F)F)c1` [Compound 359, N-[3-(2-dimethylaminoethylsulfonylamino)-5-(trifluoromethyl)phenyl]-4-oxo-1H-quinoline-3-carboxamide], the figure is 25 to 100%; as for `Cc1ccc2c(=O)c(C(=O)Nc3cc(O)c(C4(C)CCCCC4)cc3F)c[nH]c2c1` [Compound 499, N-[2-fluoro-5-hydroxy-4-(1-methylcyclohexyl)-phenyl]-7-methyl-4-oxo-1H-quinoline-3-carboxamide], 25 to 100%. With `CC(C)OC(=O)c1cccc(-c2ccccc2NC(=O)c2c[nH]c3ccccc3c2=O)c1` [Compound 71, 3-[2-[(4-oxo-1H-quinolin-3-yl)carbonylamino]phenyl]benzoic acid isopropyl ester] the figure was 25 to 100%; with `CC(C)(C)c1cc(F)c(NC(=O)c2c[nH]c3ccc(F)cc3c2=O)cc1O` [Compound 319, 6-fluoro-N-(2-fluoro-5-hydroxy-4-tert-butyl-phenyl)-4-oxo-1H-quinoline-3-carboxamide], 25 to 100%.

As to `CC(C)(CO)c1ccc(NC(=O)c2c[nH]c3ccccc3c2=O)cc1` [Compound 5, N-[4-(2-hydroxy-1,1-dimethyl-ethyl)phenyl]-4-oxo-1H-quinoline-3-carboxamide], the Emax lay within 25 to 100%. As for `CC(=O)Nc1cccc(NC(=O)c2c[nH]c3ccccc3c2=O)c1` [Compound 419, N-(3-acetylaminophenyl)-4-oxo-1H-quinoline-3-carboxamide], the figure is less than 25%. With `Cc1ccc(-c2ccccc2NC(=O)c2c[nH]c3ccccc3c2=O)cc1C` [Compound 261, N-[2-(3,4-dimethylphenyl)phenyl]-4-oxo-1H-quinoline-3-carboxamide] the figure was 25 to 100%; with `CCc1cccc(CC)c1NC(=O)c1c[nH]c2ccccc2c1=O` [Compound 325, N-(2,6-diethylphenyl)-4-oxo-1H-quinoline-3-carboxamide], 25 to 100%. With `O=C(Nc1ccc(CO)cc1)c1c[nH]c2ccccc2c1=O` [Compound 209, N-[4-(hydroxymethyl)phenyl]-4-oxo-1H-quinoline-3-carboxamide] the figure was 25 to 100%; with `C[C@H]1CCCCN1c1ccc(NC(=O)c2c[nH]c3ccccc3c2=O)c(C(F)(F)F)c1` [Compound 713, (S)-N-(4-(2-methylpiperidin-1-yl)-2-(trifluoromethyl)phenyl)-4-oxo-1,4-dihydroquinoline-3-carboxamide], more than 100%; with `CC(C)COC(=O)NCC(C)(C)c1ccc(NC(=O)c2c[nH]c3ccccc3c2=O)cc1` [Compound 251, [2-methyl-2-[4-[(4-oxo-1H-quinolin-3-yl)carbonylamino]phenyl]-propyl]aminoformic acid isobutyl ester], 25 to 100%.

Turning to `COC(=O)NC1CCCc2ccc(NC(=O)c3c[nH]c4ccccc4c3=O)cc21` (centres unmarked) [Compound 159, [7-[(4-Oxo-1H-quinolin-3-yl)carbonylamino]tetralin-1-yl]aminoformic acid methyl ester], the Emax lay in the range of 25 to 100%. With `COCCOC(=O)NCC(C)(C)c1ccc(NC(=O)c2c[nH]c3ccccc3c2=O)cc1` [Compound 28, [2-methyl-2-[4-[(4-oxo-1H-quinolin-3-yl)carbonylamino]phenyl]-propyl]aminoformic acid 2-methoxyethyl ester] the figure was 25 to 100%; with `O=C(Nc1cnccn1)c1c[nH]c2ccccc2c1=O` [Compound 219, 4-oxo-N-pyrazin-2-yl-1H-quinoline-3-carboxamide], less than 25%; with `CCc1cccc2c(=O)c(C(=O)Nc3cc(O)c(C(C)(C)C)cc3F)c[nH]c12` [Compound 605, 8-ethyl-N-(2-fluoro-5-hydroxy-4-tert-butyl-phenyl)-4-oxo-1H-quinoline-3-carboxamide], less than 25%. With `O=C(Nc1ccccc1Oc1ncc(C(F)(F)F)cc1Cl)c1c[nH]c2ccccc2c1=O` [Compound 42, N-[2-[[3-chloro-5-(trifluoromethyl)-2-pyridyl]oxy]phenyl]-4-oxo-1H-quinoline-3-carboxamide] the figure was 25 to 100%; with `O=C(Nc1ccc(OC(F)(F)F)c(N2CCCCC2)c1)c1c[nH]c2ccccc2c1=O` [Compound 696, 4-oxo-N-[3-(1-piperidyl)-4-(trifluoromethoxy)phenyl]-1H-quinoline-3-carboxamide], 25 to 100%. As for `O=C(Nc1cccc(Cl)c1)c1c[nH]c2ccccc2c1=O` [Compound 370, N-(3-chlorophenyl)-4-oxo-1H-quinoline-3-carboxamide], the figure is 25 to 100%; as for `O=C(Nc1ccc(S(=O)(=O)N2CCOCC2)cc1)c1c[nH]c2ccccc2c1=O` [Compound 276, N-(4-morpholinosulfonylphenyl)-4-oxo-1H-quinoline-3-carboxamide], 25 to 100%. On to `CC(C)(C)c1cc(C(C)(C)C)c(NC(=O)c2c[nH]c3ccc(Br)cc3c2=O)cc1O` [Compound 553, 6-bromo-N-(5-hydroxy-2,4-ditert-butyl-phenyl)-4-oxo-1H-quinoline-3-carboxamide], for which the Emax lay in the range of 25 to 100%. For `CCc1ccc2ncc(C(=O)Nc3ccc4cc[nH]c4c3)c(O)c2c1` [Compound 67, 6-ethyl-4-hydroxy-N-(1H-indol-6-yl)quinoline-3-carboxamide], the Emax is 25 to 100%. As for `O=C(Nc1cccc(S(=O)(=O)N2CCOCC2)c1)c1c[nH]c2ccccc2c1=O` [Compound 185, N-(3-morpholinosulfonylphenyl)-4-oxo-1H-quinoline-3-carboxamide], the Emax was less than 25%. As for `C=C(C)c1ccccc1NC(=O)c1c[nH]c2ccccc2c1=O` [Compound 445, N-(2-isopropenylphenyl)-4-oxo-1H-quinoline-3-carboxamide], the figure is more than 100%; as for `CC1(c2cc(F)c(NC(=O)c3c[nH]c4ccc(F)cc4c3=O)cc2O)CCCCC1` [Compound 218, 6-fluoro-N-[2-fluoro-5-hydroxy-4-(1-methylcyclohexyl)-phenyl]-4-oxo-1H-quinoline-3-carboxamide], 25 to 100%; as for `O=C(Nc1ccc(OC(F)(F)F)cc1)c1c[nH]c2ccccc2c1=O` [Compound 176, 4-oxo-N-[4-(trifluoromethoxy)phenyl]-1H-quinoline-3-carboxamide], 25 to 100%. With `O=C1CSc2ccc(NC(=O)c3c[nH]c4ccccc4c3=O)cc2N1` [Compound 262, 1,4-dihydro-N-(3,4-dihydro-3-oxo-2H-benzo[b][1,4]thiazin-6-yl)-4-oxoquinoline-3-carboxamide] the figure was 25 to 100%.

As for `N#Cc1cc(Cl)cc(Cl)c1NC(=O)c1c[nH]c2ccccc2c1=O` [Compound 369, N-(2,4-dichloro-6-cyano-phenyl)-4-oxo-1H-quinoline-3-carboxamide], the Emax is less than 25%. As for `COC(=O)C1CCCCN1c1ccc(NC(=O)c2c[nH]c3ccccc3c2=O)c(C(F)(F)F)c1` (centres unmarked) [Compound 492, methyl 1-[4-[(4-oxo-1H-quinolin-3-yl)carbonylamino]-3-(trifluoromethyl)phenyl]piperidine-2-carboxylate], the figure is more than 100%. As for `O=C(Nc1ccccc1-c1cccc(Cl)c1Cl)c1c[nH]c2ccccc2c1=O` [Compound 171, N-[2-(2,3-dichlorophenyl)phenyl]-4-oxo-1H-quinoline-3-carboxamide], the figure is 25 to 100%; as for `O=C(Nc1ccc(C(F)(F)F)cc1Cl)c1c[nH]c2ccc(F)cc2c1=O` [Compound 636, N-[2-chloro-4-(trifluoromethyl)phenyl]-6-fluoro-4-oxo-1H-quinoline-3-carboxamide], less than 25%.
